In patent US20250195453A1, “NOVEL ANTIBIOTIC WITH QUORUM SENSING INHIBITOR ACTIVITY” (priority 2022, published 2025):

Assays:
[1] = tested on: violacein production in C. violaceum; experiment: Quorum sensing assay: violacein production in C. violaceum; type: cell-based, Chromobacterium violaceum; settings: funalenone up to 1 mM
Method: C. violaceum bacteria were grown o/n in tryptic soy broth at 27° C. The bacteria were diluted in TSB and grown until OD600=0.5-0.7. Bacteria were diluted 1:1000 and 50 μL bacterial suspension was transferred to 96-well plates containing 50 μL fungal filtrate, extract or purified compound in a range of concentrations. […] Plates were incubated for 20 h at 27° C. while shaking at 180 rpm. Plates were centrifuged for 10 min at 3000 rpm to precipitate the violacein. Supernatant was aspirated and the pellet was resuspended in 200 μL 96% ethanol. The plates were centrifuged again for 10 min at 3000 rpm and 100 μL of the supernatant containing the violacein was transferred to a new 96-well plate and the violacein production was quantified by measuring the OD562 on an ASYS expert plus microplate reader.

WT-GFP = type: cell-based, Pseudomonas aeruginosa (PAO1); settings: funalenone concentrations up to 500 μM
Method: (§1) Quorum sensing activity in PAO1 cells can be assessed by a the person skilled in the art, preferably by a quorum sensing reporter assay as exemplified herein. PAO1 reporters express green fluorescent protein under the control of the lasB promoter, the rhlA promoter, the pqsA promoter or a constitutive promoter, PA1/04/03. Reporter bacteria are inoculated in AB minimal media supplemented with 0.5% glucose and 0.5% casamino acids. Cultures are diluted in physiological salt solution to an OD450=0.1-0.2 before addition to AB medium with a range of concentrations of compound. The GFP fluorescence (excitation 485 nm, emission 535 nm) and absorbance (600 nm) are determined every 15 min for 15 h at 34° C. IC50 values are calculated based on the maximum slope of GFP/OD. If the IC50 on reporter lines is less than half of the IC50 on control bacteria, the compound is scored as quorum sensing inhibitor.
(§2) To test the potential of paecilomycone as quorum sensing inhibitor in more clinically relevant bacteria, the effect on P. aeruginosa (PAO1) was tested. […] To correct for potential effects on bacterial growth, the OD600 was determined in parallel with GFP fluorescence intensity and RFU/OD was plotted.

lasB-GFP reporter = experiment: PAO1 quorum sensing reporter assay, lasB-GFP; type: cell-based, Pseudomonas aeruginosa (PAO1); settings: funalenone concentrations up to 500 μM
Method: as §1, §2

pqsA-GFP reporter = experiment: PAO1 quorum sensing reporter assay, pqsA-GFP; type: cell-based, Pseudomonas aeruginosa (PAO1); settings: funalenone concentrations up to 500 μM
Method: as §1, §2

C. violaceum = experiment: Viability assay (resazurin) of C. violaceum in parallel to quorum sensing assay; type: cell-based, Chromobacterium violaceum; settings: assays in parallel with the quorum sensing assays
Method: To ascertain that reduced OD562 signal is due to inhibition of quorum sensing and not merely due to reduced viability of bacteria, a viability assay may be done in parallel to the quorum sensing assay. To assess viability of bacteria, C. violaceum bacteria are grown o/n at 27° C. in TSB medium. The bacteria are diluted 1000× in TSB medium and grown until OD600=0.5-0.7. The bacteria are resuspended in TSB medium containing compound and incubated at 27° C. for 20 h. Bacteria are collected by centrifugation for 10 min at 3000 rpm. Supernatant is aspirated and resazurin (150 μg/mL in physiological salt solution) is added. Plates are incubated for another 45 min at 27° C. and fluorescence is measured by excitation at 540 nm and emission at 590 nm. If the fluorescent signal is less than 70% of the fluorescent signal of control untreated bacteria, the sample is scored as having an effect on viability of the bacteria.
C. violaceum bacteria were grown o/n in tryptic soy broth at 27° C. The bacteria were diluted in TSB and grown until OD600=0.5-0.7. […] The plates were centrifuged again for 10 min at 3000 rpm and 100 μL of the supernatant containing the violacein was transferred to a new 96-well plate and the violacein production was quantified by measuring the OD562 on an ASYS expert plus microplate reader. […]

rhlA-GFP reporter = experiment: PAO1 quorum sensing reporter assay, rhlA-GFP; type: cell-based, Pseudomonas aeruginosa (PAO1); settings: funalenone concentrations up to 500 μM
Method: as §1, §2

## COC1=C(O)c2c(O)cc(C)c3c(O)cc(O)c(c23)C1=O [funalenone]
[1]
  Inhibition of violacein production: did not inhibit violacein production
WT-GFP
  Effect on control WT-GFP reporter: no effects on quorum sensing
lasB-GFP reporter
  Effect on quorum sensing, lasB-GFP reporter: no effects on quorum sensing
pqsA-GFP reporter
  Effect on quorum sensing, pqsA-GFP reporter: no effects on quorum sensing
C. violaceum
  Effect on cell viability of C. violaceum: did not affect cell viability
rhlA-GFP reporter
  Effect on quorum sensing, rhlA-GFP reporter: no effects on quorum sensing
